Laboratory results as given in US20190307843A1, “SINGLE DOSE METHODS FOR PREVENTING AND TREATING FUNGAL INFECTIONS” (Cidara Therapeutics, Inc., priority 2016, published 2019).
Starred links: 1 amine or outer side, 2 acyl side, 3 side chain; linkers in the order of their positions; H or OH if unused. Positions of bridges follow the written chain, without caps; N, C: chain ends. Non-standard residues stand in square brackets, D forms with d. Residues, ends and D or L forms follow the SMILES beside them. *: point of attachment. Orn(4R-OH,5R-OCH2CH2NMe3+) = C[N+](C)(C)CCO[C@@H](N[*:3])[C@H](O)C[C@H](N[*:1])C(=O)[*:2]; pTerphenylCO(4''-OnC5H11) = CCCCCOc1ccc(-c2ccc(-c3ccc(C(=O)*)cc3)cc2)cc1; hTyr(3S-OH,4S-OH) = N[C@H](C(=O)O)[C@H](O)[C@@H](O)c1ccc(O)cc1; Pro(3S-OH,4S-Me) = C[C@H]1CN[C@H](C(=O)O)[C@H]1O; Hyp = O=C(O)[C@@H]1C[C@@H](O)CN1

Experiments:
[1] = system: Candida albicans SC5314
[2] = system: aspergillosis; assay: Human subject with aspergillosis, single oral dose (Example 4); type: in vivo; conditions: single dose of 50 mg-1200 mg acetate salt of CD101, oral formulation
Procedure: A human subject is diagnosed with aspergillosis using standard diagnostic procedures. The subject receives treatment with a single dose of 50 mg-1200 mg (e.g., 75±25 mg, 100±25 mg, 150±50 mg, 200±50 mg, 250±50 mg, 300±50 mg, 350±50 mg, 400±50 mg, 450±50 mg, 500±100 mg, 600±100 mg, 700±100 mg, 800±100 mg, 900±50 mg, 1000 mg±100 mg, or 1100±100 mg) of the acetate salt of CD101 administered in an oral formulation (e.g., in a pill, capsule, or liquid formulation). No other antifungal treatment is provided to the subject within one to three weeks before or after administration of the single dose CD101 treatment.

[3] = type: in vivo, rat; conditions: all treatment dose and duration
Procedure: The rats were monitored at a frequency appropriate for their clinical condition. Rat weights were recorded at least once daily to ensure animals remained within ethical limits.

[4] = system: C. auris; assay: Murine model of disseminated candidiasis, C. auris infection, kidney CFU and survival; type: in vivo, Candida auris; conditions: CD101 20 mg/kg IP
[5] = system: A. fumigatus strain AF293; assay: Murine model of pulmonary aspergillosis (Example 13), survival
[6] = system: C. albicans SC-5314 biofilms; assay: Mature phase biofilms (treatment), XTT metabolic activity and CSLM; type: cell-based, Candida albicans
[7] = system: C. albicans strain 529L; assay: Rat model of vulvovaginal candidiasis, vaginal lavage and tissue burden; type: in vivo, Candida albicans
[8] = CD101 5mpk Day −3 vs. CD101 5mpk Day −5
[9] = CD101 5mpk Day −5 vs. CD101 10mpk Day −5
[10] = CD101 5mpk Day −5 vs. CD101 20mpk Day −5
[11] = CD101 20mpk Day −1 vs. CD101 20mpk Day −3
[12] = Micafungin 2mpk Day −1 vs. CD101 10mpk Day −1
[13] = Micafungin 2mpk Day −1 vs. CD101 20mpk Day −1
[14] = 5 mg/kg SC Dosed Once, lavage Day 1 post infection, pre-treatment
[15] = 5 mg/kg SC Dosed Once, lavage Day 2 post infection
[16] = 5 mg/kg SC Dosed Once, lavage Day 3 post infection
[17] = 5 mg/kg SC Dosed Once, lavage Day 5 post infection
[18] = 5 mg/kg SC Dosed Once, lavage Day 7 post infection
[19] = 5 mg/kg SC Dosed Once, lavage Day 9 post infection
[20] = 5 mg/kg SC Dosed Once, terminal vaginal tissue Day +9 post infection
[21] = 5 mg/kg SC Dosed Twice, lavage Day 1 post infection, pre-treatment
[22] = 5 mg/kg SC Dosed Twice, lavage Day 2 post infection

## CCCCCOc1ccc(-c2ccc(-c3ccc(C(=O)N[C@H]4C[C@@H](O)[C@@H](OCC[N+](C)(C)C)NC(=O)[C@@H]5[C@@H](O)[C@@H](C)CN5C(=O)[C@H]([C@@H](C)O)NC(=O)[C@H]([C@H](O)[C@@H](O)c5ccc(O)cc5)NC(=O)[C@@H]5C[C@@H](O)CN5C(=O)[C@H]([C@@H](C)O)NC4=O)cc3)cc2)cc1 [CD101] ({pTerphenylCO(4''-OnC5H11)}-[Orn(4R-OH,5R-OCH2CH2NMe3+)]T[Hyp][hTyr(3S-OH,4S-OH)]T[Pro(3S-OH,4S-Me)]; lactam 1-C)
[1]; CD101 SC 1 mg/kg, by 24 hr
  animals completely cleared of CFU burden: 4 of 5
[1]; CD101 SC 1, 3, and 10 mg/kg, 24 hr
  kidney CFU compared with the vehicle control: significant reduction in kidney CFU
[1]; CD101 SC 3 or 10 mg/kg, 24 hr
  CFU clearance: complete CFU clearance
[2]
  aspergillosis infection at follow-up visit: confirmed to be resolved
[3]
  tolerability: well tolerated with no adverse events observed
[4]; 2 doses, Day 14
  percent survival at the end of the study: 80%
[4]; Day 1 and Day 4, Day 8
  average reduction in kidney CFU compared to fluconazole, amphotericin B, and vehicle treated groups: 3 log
[5]; CD101 5 mg/kg IP Day 0
  Mean Survival: 67.8 h
  Median Survival: 64.6 h
[5]; CD101 5 mg/kg IP Day −1
  Mean Survival: 72.1 h
  Median Survival: 67.6 h
[5]; CD101 5 mg/kg IP Day −3
  Mean Survival: 70.0 h
  Median Survival: 67.7 h
[5]; CD101 5 mg/kg IP Day −5
  Mean Survival: 65.3 h
  Median Survival: 65.3 h
[5]; CD101 10 mg/kg IP Day −1
  Mean Survival: 121.8 h
  Median Survival: 81.0 h
[5]; CD101 10 mg/kg IP Day −3
  Mean Survival: 76.9 h
  Median Survival: 73.4 h
[5]; CD101 10 mg/kg IP Day −5
  Mean Survival: 67.2 h
  Median Survival: 65.7 h
[5]; CD101 20 mg/kg IP Day −1
  Mean Survival: 155.6 h
  Median Survival: 72.3 h
[5]; CD101 20 mg/kg IP Day −3
  Mean Survival: 91.9 h
  Median Survival: 69.8 h
[5]; CD101 20 mg/kg IP Day −5
  Mean Survival: 75.5 h
  Median Survival: 69.8 h
[5]; [8]
  Log-Rank test, survival: 0.0183
  Peto-Prentice (Wilcoxon) test, survival: 0.0426
[5]; [9]
  Log-Rank test, survival: 0.0009
  Peto-Prentice (Wilcoxon) test, survival: 0.0015
[5]; [10]
  Log-Rank test, survival: 0.0009
  Peto-Prentice (Wilcoxon) test, survival: 0.0015
[5]; [11]
  Log-Rank test, survival: 0.0387
  Peto-Prentice (Wilcoxon) test, survival: 0.033
[5]; Micafungin 2mpk Day −1 vs. CD101 5mpk Day −1
  Peto-Prentice (Wilcoxon) test, survival: 0.0467
[5]; [12]
  Log-Rank test, survival: 0.0201
  Peto-Prentice (Wilcoxon) test, survival: 0.0191
[5]; [13]
  Log-Rank test, survival: 0.0047
  Peto-Prentice (Wilcoxon) test, survival: 0.0067
[5]; Vehicle vs. CD101 20mpk Day −1
  Log-Rank test, survival: NS (0.0533)
  Peto-Prentice (Wilcoxon) test, survival: 0.0465
[6]; CD101 0.25 and 1 μg/ml, 24 h, vs untreated
  metabolic activity (XTT) of mature biofilms: significantly less metabolic activity
[6]; CD101, untreated control 43 μm
  thickness of biofilms: 24 μm
[7]; [14]
  Group Geometric mean: 9.11 × 10^2 CFU/mL
  Log Group Geometric mean: 2.96 CFU/mL
  Log reduction from vehicle control: −0.52 CFU/mL
[7]; [15]
  Group Geometric mean: 3.34 × 10^2 CFU/mL
  Log Group Geometric mean: 2.52 CFU/mL
  Log reduction from vehicle control: 1.17 CFU/mL
[7]; [16]
  Group Geometric mean: 1.21 × 10^2 CFU/mL
  Log Group Geometric mean: 2.08 CFU/mL
  Log reduction from vehicle control: 1.49 CFU/mL
[7]; [17]
  Group Geometric mean: 1.70 × 10^3 CFU/mL
  Log Group Geometric mean: 3.23 CFU/mL
  Log reduction from vehicle control: 0.99 CFU/mL
[7]; [18]
  Group Geometric mean: 4.56 × 10^3 CFU/mL
  Log Group Geometric mean: 3.66 CFU/mL
  Log reduction from vehicle control: 0.52 CFU/mL
[7]; [19]
  Group Geometric mean: 4.58 × 10^3 CFU/mL
  Log Group Geometric mean: 3.66 CFU/mL
  Log reduction from vehicle control: 0.64 CFU/mL
[7]; [20]
  Group Geometric mean: 1.37 × 10^5 CFU/g
  Log Group Geometric mean: 5.14 CFU/g
[7]; [21]
  Group Geometric mean: 1.83 × 10^3 CFU/mL
  Log Group Geometric mean: 3.26 CFU/mL
  Log reduction from vehicle control: −0.83 CFU/mL
[7]; [22]
  Group Geometric mean: 2.56 × 10^2 CFU/mL
  Log Group Geometric mean: 2.41 CFU/mL
